In brackets after ≈: the same amount, converted by molar mass.
Columns and labels:
Ketohexokinase [1] = biological target: T1, Ketohexokinase (Homo sapiens, UniProt P50053); assay: Inhibition of human ketohexokinase isoform C expressed in Escherichia coli BL21 (DE3) cells using D-fructose as substrate after 12 to 15 mins by fluorescence polarization assay
T1 sequence (P50053 whole entry): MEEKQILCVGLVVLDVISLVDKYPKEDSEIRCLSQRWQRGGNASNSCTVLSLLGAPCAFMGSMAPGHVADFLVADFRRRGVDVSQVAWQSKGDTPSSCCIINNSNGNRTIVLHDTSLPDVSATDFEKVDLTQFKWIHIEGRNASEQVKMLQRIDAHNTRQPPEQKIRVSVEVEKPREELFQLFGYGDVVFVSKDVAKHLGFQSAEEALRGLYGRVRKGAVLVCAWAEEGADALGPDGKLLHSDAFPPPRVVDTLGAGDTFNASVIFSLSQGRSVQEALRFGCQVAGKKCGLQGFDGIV

Ketohexokinase [2] = biological target: T1, Ketohexokinase; assay: Inhibition of ketokinase isoform C in human HepG2 cells assessed as levels of fructose-1-phosphate preincubated for 30 mins followed by substrate addition measured after 3 hrs by LC-MS analysis; assay type: cell-based
[3] = biological target: Tyrosine-protein kinase ABL1 (Homo sapiens, UniProt P00519); assay: Inhibition of ABL1
Chain of Tyrosine-protein kinase ABL1 (P00519 whole entry): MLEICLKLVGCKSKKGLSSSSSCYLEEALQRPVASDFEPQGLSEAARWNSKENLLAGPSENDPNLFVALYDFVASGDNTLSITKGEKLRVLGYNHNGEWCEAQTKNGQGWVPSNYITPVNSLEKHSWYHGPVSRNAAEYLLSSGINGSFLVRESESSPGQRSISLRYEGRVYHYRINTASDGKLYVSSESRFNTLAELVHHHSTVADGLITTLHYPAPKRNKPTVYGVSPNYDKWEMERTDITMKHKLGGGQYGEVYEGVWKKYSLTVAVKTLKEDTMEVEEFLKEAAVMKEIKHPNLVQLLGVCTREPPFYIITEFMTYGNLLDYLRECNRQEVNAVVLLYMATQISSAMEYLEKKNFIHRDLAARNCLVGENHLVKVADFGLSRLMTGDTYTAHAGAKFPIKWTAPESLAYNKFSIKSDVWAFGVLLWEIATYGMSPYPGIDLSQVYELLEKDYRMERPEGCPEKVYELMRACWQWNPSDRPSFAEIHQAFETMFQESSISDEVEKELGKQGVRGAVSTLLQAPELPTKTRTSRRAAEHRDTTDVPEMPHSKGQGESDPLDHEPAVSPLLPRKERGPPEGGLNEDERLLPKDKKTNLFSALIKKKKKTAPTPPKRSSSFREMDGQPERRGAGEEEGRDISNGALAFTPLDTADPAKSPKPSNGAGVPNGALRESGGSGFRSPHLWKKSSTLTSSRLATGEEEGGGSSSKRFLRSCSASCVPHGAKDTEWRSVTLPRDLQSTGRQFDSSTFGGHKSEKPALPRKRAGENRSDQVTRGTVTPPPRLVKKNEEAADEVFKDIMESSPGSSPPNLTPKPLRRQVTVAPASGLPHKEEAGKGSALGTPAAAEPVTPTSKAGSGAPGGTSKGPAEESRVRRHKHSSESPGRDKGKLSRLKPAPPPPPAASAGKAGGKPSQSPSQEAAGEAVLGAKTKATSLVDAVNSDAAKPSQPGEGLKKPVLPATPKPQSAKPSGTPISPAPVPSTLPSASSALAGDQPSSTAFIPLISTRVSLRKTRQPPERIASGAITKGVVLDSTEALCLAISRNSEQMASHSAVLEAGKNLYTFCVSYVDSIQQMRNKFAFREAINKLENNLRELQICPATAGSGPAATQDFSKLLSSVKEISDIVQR

Activin receptor type-1B = Activin receptor type-1B (Homo sapiens, UniProt P36896); assay: Inhibition of ALK4
[4] = biological target: RAC-alpha serine/threonine-protein kinase (Homo sapiens, UniProt P31749); assay: Inhibition of AKT1
[5] = biological target: 5'-AMP-activated protein kinase catalytic subunit alpha-1 (Homo sapiens, UniProt Q13131); assay: Inhibition of AMPKA1
[6] = biological target: 5'-AMP-activated protein kinase subunit beta-1 (Homo sapiens, UniProt Q9Y478); assay: Inhibition of AMPKB1
[7] = biological target: 5'-AMP-activated protein kinase subunit gamma-1 (Homo sapiens, UniProt P54619); assay: Inhibition of AMPKG1
Aurora kinase A = Aurora kinase A (Homo sapiens, UniProt O14965); assay: Inhibition of Aurora A
[8] = biological target: Calcium/calmodulin-dependent protein kinase type 1D (Homo sapiens, UniProt Q8IU85); assay: Inhibition of CAMK1D
[9] = biological target: Calcium/calmodulin-dependent protein kinase type II subunit alpha (Homo sapiens, UniProt Q9UQM7); assay: Inhibition of CAMK2A
[10] = biological target: Cyclin-dependent kinase 1/cyclin B1 (Homo sapiens, UniProt P06493); assay: Inhibition of CDK1/cyclin B; assay type: protein-complex assay
[11] = biological target: Serine/threonine-protein kinase Chk1 (Homo sapiens, UniProt O14757); assay: Inhibition of CHK1
Chain of Serine/threonine-protein kinase Chk1 (O14757 whole entry): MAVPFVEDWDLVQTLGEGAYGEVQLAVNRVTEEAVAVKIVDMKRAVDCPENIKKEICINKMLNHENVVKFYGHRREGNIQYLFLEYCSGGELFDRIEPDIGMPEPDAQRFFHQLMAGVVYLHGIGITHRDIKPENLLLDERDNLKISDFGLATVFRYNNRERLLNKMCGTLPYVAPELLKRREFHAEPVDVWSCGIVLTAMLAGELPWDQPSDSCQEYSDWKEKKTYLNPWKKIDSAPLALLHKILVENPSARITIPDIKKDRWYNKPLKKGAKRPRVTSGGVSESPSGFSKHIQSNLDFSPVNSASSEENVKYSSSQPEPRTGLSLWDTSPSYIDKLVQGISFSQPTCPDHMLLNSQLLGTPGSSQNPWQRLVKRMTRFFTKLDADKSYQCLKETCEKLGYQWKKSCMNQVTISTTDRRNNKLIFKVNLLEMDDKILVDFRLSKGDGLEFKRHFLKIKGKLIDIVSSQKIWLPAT

[12] = biological target: Serine/threonine-protein kinase Chk2 (Homo sapiens, UniProt O96017); assay: Inhibition of CHK2
[13] = biological target: Death-associated protein kinase 3 (Homo sapiens, UniProt O43293); assay: Inhibition of DAPK3
Ephrin type-B receptor 1 = Ephrin type-B receptor 1 (Homo sapiens, UniProt P54762); assay: Inhibition of EPHB1
Chain of Ephrin type-B receptor 1 (P54762 whole entry): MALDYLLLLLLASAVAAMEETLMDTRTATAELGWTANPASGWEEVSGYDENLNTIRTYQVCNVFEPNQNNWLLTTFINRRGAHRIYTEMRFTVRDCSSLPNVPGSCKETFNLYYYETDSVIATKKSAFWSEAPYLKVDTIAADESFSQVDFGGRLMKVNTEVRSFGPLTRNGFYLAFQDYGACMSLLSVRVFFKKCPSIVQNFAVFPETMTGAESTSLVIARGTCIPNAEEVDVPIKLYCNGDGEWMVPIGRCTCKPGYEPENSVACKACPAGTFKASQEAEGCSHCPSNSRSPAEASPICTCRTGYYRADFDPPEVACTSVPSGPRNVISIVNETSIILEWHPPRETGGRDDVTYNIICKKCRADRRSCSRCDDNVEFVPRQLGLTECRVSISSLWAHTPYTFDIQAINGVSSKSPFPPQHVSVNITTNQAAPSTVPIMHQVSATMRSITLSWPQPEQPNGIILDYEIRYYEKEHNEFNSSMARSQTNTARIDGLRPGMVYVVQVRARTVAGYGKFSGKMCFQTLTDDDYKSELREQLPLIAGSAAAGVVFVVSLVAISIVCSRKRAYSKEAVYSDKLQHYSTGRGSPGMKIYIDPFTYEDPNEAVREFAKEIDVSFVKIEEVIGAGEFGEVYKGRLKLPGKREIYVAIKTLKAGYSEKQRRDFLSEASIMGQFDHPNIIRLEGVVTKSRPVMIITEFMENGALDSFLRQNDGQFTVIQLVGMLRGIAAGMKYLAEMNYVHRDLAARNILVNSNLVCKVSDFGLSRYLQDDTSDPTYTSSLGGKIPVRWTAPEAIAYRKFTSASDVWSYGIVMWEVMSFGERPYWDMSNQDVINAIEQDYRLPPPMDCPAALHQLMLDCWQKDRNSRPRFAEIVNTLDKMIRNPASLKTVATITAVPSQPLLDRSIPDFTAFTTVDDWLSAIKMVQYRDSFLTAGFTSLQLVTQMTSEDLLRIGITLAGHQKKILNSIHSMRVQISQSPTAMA

[14] = biological target: Glycogen synthase kinase-3 beta (Homo sapiens, UniProt P49841); assay: Inhibition of GSK3beta
[15] = biological target: Interleukin-1 receptor-associated kinase 4 (Homo sapiens, UniProt Q9NWZ3); assay: Inhibition of IRAK4
[16] = biological target: Tyrosine-protein kinase JAK2 (Homo sapiens, UniProt O60674); assay: Inhibition of JAK2
[17] = biological target: Mitogen-activated protein kinase 13 (Homo sapiens, UniProt O15264); assay: Inhibition of p38delta
[18] = biological target: Serine/threonine-protein kinase 26 (Homo sapiens, UniProt Q9P289); assay: Inhibition of MST4
[19] = biological target: Serine/threonine-protein kinase Nek2 (Homo sapiens, UniProt P51955); assay: Inhibition of NEK2
Chain of Serine/threonine-protein kinase Nek2 (P51955 whole entry): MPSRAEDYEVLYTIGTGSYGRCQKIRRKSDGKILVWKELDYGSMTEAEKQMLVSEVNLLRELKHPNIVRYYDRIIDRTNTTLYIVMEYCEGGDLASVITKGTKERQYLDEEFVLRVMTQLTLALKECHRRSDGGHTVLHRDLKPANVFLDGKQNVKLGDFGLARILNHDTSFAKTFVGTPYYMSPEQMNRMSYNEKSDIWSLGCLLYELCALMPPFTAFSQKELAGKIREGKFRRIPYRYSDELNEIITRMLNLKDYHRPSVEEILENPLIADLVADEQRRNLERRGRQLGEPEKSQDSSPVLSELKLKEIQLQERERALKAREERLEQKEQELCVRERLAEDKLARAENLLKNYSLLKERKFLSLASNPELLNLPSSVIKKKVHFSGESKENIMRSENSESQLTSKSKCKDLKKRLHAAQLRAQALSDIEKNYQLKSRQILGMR

[20] = biological target: High affinity nerve growth factor receptor (Homo sapiens, UniProt P04629); assay: Inhibition of NTRK1
[21] = biological target: Serine/threonine-protein kinase PAK 3 (Homo sapiens, UniProt O75914); assay: Inhibition of PAK3
[22] = biological target: Serine/threonine-protein kinase pim-2 (Homo sapiens, UniProt Q9P1W9); assay: Inhibition of PIM2
[23] = biological target: Serine/threonine-protein kinase PLK3 (Homo sapiens, UniProt Q9H4B4); assay: Inhibition of PLK3
[24] = biological target: cAMP-dependent protein kinase catalytic subunit alpha (Homo sapiens, UniProt P17612); assay: Inhibition of PRKACA
[25] = biological target: Protein kinase C theta type (Homo sapiens, UniProt Q04759); assay: Inhibition of PKCtheta
Chain of Protein kinase C theta type (Q04759 whole entry): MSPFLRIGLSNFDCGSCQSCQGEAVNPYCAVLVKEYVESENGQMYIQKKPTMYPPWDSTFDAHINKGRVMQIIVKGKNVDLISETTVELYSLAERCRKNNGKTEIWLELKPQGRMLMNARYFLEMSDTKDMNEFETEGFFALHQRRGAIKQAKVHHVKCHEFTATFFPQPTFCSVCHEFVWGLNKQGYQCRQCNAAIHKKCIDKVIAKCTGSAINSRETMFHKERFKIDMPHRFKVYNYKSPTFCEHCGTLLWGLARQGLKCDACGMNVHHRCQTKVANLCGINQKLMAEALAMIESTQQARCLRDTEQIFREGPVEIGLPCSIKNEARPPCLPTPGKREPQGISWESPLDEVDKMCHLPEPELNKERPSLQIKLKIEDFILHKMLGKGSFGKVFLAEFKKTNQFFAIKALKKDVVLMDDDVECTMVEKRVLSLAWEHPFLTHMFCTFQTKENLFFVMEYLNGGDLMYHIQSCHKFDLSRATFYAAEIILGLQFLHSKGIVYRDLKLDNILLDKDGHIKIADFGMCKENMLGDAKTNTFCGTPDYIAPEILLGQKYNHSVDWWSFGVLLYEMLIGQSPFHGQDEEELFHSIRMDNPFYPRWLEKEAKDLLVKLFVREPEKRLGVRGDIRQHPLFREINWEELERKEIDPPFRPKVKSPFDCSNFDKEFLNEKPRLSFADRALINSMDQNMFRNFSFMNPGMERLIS

[26] = biological target: Rho-associated protein kinase 1 (Homo sapiens, UniProt Q13464); assay: Inhibition of ROCK1
[27] = biological target: Ribosomal protein S6 kinase alpha-3 (Homo sapiens, UniProt P51812); assay: Inhibition of RPS6KA3
Chain of Ribosomal protein S6 kinase alpha-3 (P51812 whole entry): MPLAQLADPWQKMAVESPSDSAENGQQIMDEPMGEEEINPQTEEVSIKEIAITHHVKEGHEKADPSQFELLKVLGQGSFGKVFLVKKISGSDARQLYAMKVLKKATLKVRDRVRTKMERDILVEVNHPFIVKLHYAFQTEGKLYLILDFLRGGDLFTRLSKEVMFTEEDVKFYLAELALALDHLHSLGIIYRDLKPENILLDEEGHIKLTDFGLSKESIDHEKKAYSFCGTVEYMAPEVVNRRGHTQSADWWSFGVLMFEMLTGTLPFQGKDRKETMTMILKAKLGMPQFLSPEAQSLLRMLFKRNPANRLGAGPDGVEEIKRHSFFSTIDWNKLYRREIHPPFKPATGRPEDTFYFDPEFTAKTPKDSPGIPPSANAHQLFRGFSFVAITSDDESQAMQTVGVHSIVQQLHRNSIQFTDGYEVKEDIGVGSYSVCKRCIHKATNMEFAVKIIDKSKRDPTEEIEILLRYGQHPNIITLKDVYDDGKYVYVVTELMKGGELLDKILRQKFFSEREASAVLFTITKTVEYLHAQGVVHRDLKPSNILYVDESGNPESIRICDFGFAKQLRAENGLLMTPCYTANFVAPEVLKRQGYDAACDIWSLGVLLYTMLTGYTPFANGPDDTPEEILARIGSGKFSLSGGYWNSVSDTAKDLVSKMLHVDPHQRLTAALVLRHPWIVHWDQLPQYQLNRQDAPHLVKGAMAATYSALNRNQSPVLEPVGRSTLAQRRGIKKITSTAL

[28] = biological target: Proto-oncogene tyrosine-protein kinase Src (Homo sapiens, UniProt P12931); assay: Inhibition of SRC
[29] = Solubility of the compound in 10% aqueous Solutol; assay type: physicochemical
[30] = Metabolic stability of the compound in human liver microsomes assessed as compound remaining after 10 mins; assay type: ADME, Microsome; details: read-out: Stability
[31] = Metabolic stability of the compound in rat liver microsomes assessed as compound remaining after 10 mins; assay type: ADME, Microsome; details: read-out: Stability
[32] = Permeability from apical to basolateral side in human Caco2 cells; assay type: ADME, cell-based; details: Caco-2, read-out: permeability
[33] = Permeability from basolateral to apical side in human Caco2 cells; assay type: ADME, cell-based; details: Caco-2, read-out: permeability
Cytochrome P450 1A2 = Cytochrome P450 1A2 (Homo sapiens, UniProt P05177); assay: Inhibition of CYP1A2 in human liver microsomes; assay type: ADME, Microsome
Cytochrome P450 2C19 = Cytochrome P450 2C19 (Homo sapiens, UniProt P33261); assay: Inhibition of CYP2C19 in human liver microsomes; assay type: ADME, Microsome
Cytochrome P450 2D6 = Cytochrome P450 2D6 (Homo sapiens, UniProt P10635); assay: Inhibition of CYP2D6 in human liver microsomes; assay type: ADME, Microsome
Cytochrome P450 2C9 = Cytochrome P450 2C9 (Homo sapiens, UniProt P11712); assay: Inhibition of CYP2C9 in human liver microsomes; assay type: ADME, Microsome
Chain of Cytochrome P450 2C9 (P11712 whole entry): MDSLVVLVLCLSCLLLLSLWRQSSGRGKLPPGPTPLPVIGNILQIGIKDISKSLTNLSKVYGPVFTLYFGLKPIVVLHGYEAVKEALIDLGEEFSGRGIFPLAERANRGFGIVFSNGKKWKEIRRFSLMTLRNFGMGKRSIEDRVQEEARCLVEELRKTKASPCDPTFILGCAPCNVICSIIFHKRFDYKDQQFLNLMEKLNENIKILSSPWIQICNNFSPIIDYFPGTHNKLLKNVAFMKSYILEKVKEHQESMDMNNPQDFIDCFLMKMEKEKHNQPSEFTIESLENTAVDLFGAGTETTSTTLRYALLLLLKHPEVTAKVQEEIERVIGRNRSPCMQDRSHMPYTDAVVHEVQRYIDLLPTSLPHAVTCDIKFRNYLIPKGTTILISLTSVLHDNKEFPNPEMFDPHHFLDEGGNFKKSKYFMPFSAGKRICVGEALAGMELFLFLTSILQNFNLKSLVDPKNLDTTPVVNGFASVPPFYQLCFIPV

Cytochrome P450 3A4 = Cytochrome P450 3A4 (Homo sapiens, UniProt P08684); assay: Inhibition of CYP3A4 in human liver microsomes; assay type: ADME, Microsome
[34] = Oral bioavailability in Sprague-Dawley rat at 10 mg/kg; assay type: ADME, organism-based; details: in vivo
[35] = Half life in Sprague-Dawley rat at 10 mg/kg, po; assay type: ADME, organism-based; parameters: dose 10 mg/kg, route oral; details: in vivo
[36] = Volume of distribution at steady state in Sprague-Dawley rat at 2 mg/kg, iv; assay type: ADME, organism-based; parameters: dose 2 mg/kg, route intravenous; details: in vivo, read-out: Vdss
[37] = Clearance in Sprague-Dawley rat at 2 mg/kg, iv; assay type: ADME, organism-based; parameters: dose 2 mg/kg, route intravenous; details: in vivo
[38] = Cmax in Sprague-Dawley rat at 10 mg/kg, po; assay type: ADME, organism-based; parameters: dose 10 mg/kg, route oral; details: in vivo
[39] = Initial plasma concentration in Sprague-Dawley rat at 2 mg/kg, iv; assay type: ADME, organism-based; parameters: dose 2 mg/kg, route intravenous
[40] = Half life in Sprague-Dawley rat at 2 mg/kg, iv; assay type: ADME, organism-based; parameters: dose 2 mg/kg, route intravenous; details: in vivo

CNc1ncnc2c(Nc3ccccc3C)nc(N3CCNCC3)nc12
IC50 (Ketohexokinase [1]): 0.4 µM

Cc1ccccc1Nc1nc(N2CCNCC2)nc2c(NCC3CC3)ncnc12
IC50 (Ketohexokinase [2]): 2.4 µM

c1ccc(Nc2nc(N3CCNCC3)nc3c(NCC4CC4)ncnc23)cc1
IC50 (Ketohexokinase [1]): 3.2 µM

Cc1cccc(Nc2nc(N3CCNCC3)nc3c(NCC4CC4)ncnc23)c1
IC50 (Ketohexokinase [1]): 2.8 µM

COc1ccccc1Nc1nc(N2CCNCC2)nc2c(NCC3CC3)ncnc12
IC50 (Ketohexokinase [1]): 0.1 µM

CCOc1ccccc1Nc1nc(N2CCNCC2)nc2c(NCC3CC3)ncnc12
IC50 (Ketohexokinase [1]): 0.2 µM

CSc1ccccc1Nc1nc(N2CCNCC2)nc2c(NCC3CC3)ncnc12
IC50 (Ketohexokinase [2]): 0.4 µM
IC50 [3]: > 40 µM
IC50 (Activin receptor type-1B): > 40 µM
IC50 [4]: > 40 µM
IC50 [5]: > 40 µM
IC50 [6]: > 40 µM
IC50 [7]: > 40 µM
IC50 (Aurora kinase A): > 40 µM
IC50 [8]: > 40 µM
IC50 [9]: > 40 µM
IC50 [10]: > 40 µM
IC50 [11]: > 40 µM
IC50 [12]: > 40 µM
IC50 [13]: > 40 µM
IC50 (Ephrin type-B receptor 1): > 40 µM
IC50 [14]: > 40 µM
IC50 [15]: > 40 µM
IC50 [16]: > 40 µM
IC50 [17]: > 40 µM
IC50 [18]: > 40 µM
IC50 [19]: > 40 µM
IC50 [20]: > 40 µM
IC50 [21]: > 40 µM
IC50 [22]: > 40 µM
IC50 [23]: > 40 µM
IC50 [24]: > 40 µM
IC50 [25]: > 40 µM
IC50 [26]: > 40 µM
IC50 [27]: > 40 µM
IC50 [28]: > 40 µM
solubility [29]: 1500 µg/mL (≈ 3.55 mM)
remaining at 10 min [30]: 88%
remaining at 10 min [31]: 72%
Papp A→B [32]: 0.3 ×10⁻⁶ cm/s
Papp B→A [33]: 1 ×10⁻⁶ cm/s
inhibition (INH) (Cytochrome P450 1A2): Not Active
inhibition (INH) (Cytochrome P450 2C19): Not Active
inhibition (INH) (Cytochrome P450 2D6): Not Active
inhibition (INH) (Cytochrome P450 2C9): Not Active
inhibition (INH) (Cytochrome P450 3A4): Not Active
bioavailability [34]: 34%
half-life [35]: 4 h
Vd [36]: 32 L/kg
clearance [37]: 160 mL/min/kg
Cmax [38]: 160 nM
C0 [39]: 600 nM
half-life [40]: 2 h

CSc1cccc(Nc2nc(N3CCNCC3)nc3c(NCC4CC4)ncnc23)c1
IC50 (Ketohexokinase [1]): 2 µM

CSc1ccc(Nc2nc(N3CCNCC3)nc3c(NCC4CC4)ncnc23)cc1
IC50 (Ketohexokinase [1]): > 9 µM

CS(=O)(=O)c1ccccc1Nc1nc(N2CCNCC2)nc2c(NCC3CC3)ncnc12
IC50 (Ketohexokinase [1]): > 9 µM

CCSc1ccccc1Nc1nc(N2CCNCC2)nc2c(NCC3CC3)ncnc12
IC50 (Ketohexokinase [1]): > 9 µM

FC(F)(F)Sc1ccccc1Nc1nc(N2CCNCC2)nc2c(NCC3CC3)ncnc12
IC50 (Ketohexokinase [1]): 3 µM

CCc1ccccc1Nc1nc(N2CCNCC2)nc2c(NCC3CC3)ncnc12
IC50 (Ketohexokinase [1]): 0.13 µM

CC(C)c1ccccc1Nc1nc(N2CCNCC2)nc2c(NCC3CC3)ncnc12
IC50 (Ketohexokinase [1]): 5 µM

c1ccc(C2CC2)c(Nc2nc(N3CCNCC3)nc3c(NCC4CC4)ncnc23)c1
IC50 (Ketohexokinase [1]): 0.38 µM

Fc1ccccc1Nc1nc(N2CCNCC2)nc2c(NCC3CC3)ncnc12
IC50 (Ketohexokinase [1]): 1.5 µM

Clc1ccccc1Nc1nc(N2CCNCC2)nc2c(NCC3CC3)ncnc12
IC50 (Ketohexokinase [1]): 0.54 µM

Brc1ccccc1Nc1nc(N2CCNCC2)nc2c(NCC3CC3)ncnc12
IC50 (Ketohexokinase [1]): 0.17 µM

c1nc(NCC2CC2)c2nc(N3CCNCC3)nc(NC3CC3)c2n1
IC50 (Ketohexokinase [1]): > 9 µM

c1nc(NCC2CC2)c2nc(N3CCNCC3)nc(NC3CCCCC3)c2n1
IC50 (Ketohexokinase [1]): > 9 µM

CCCNc1ncnc2c(Nc3ccccc3C)nc(N3CCNCC3)nc12
IC50 (Ketohexokinase [1]): 0.4 µM

CCCCCCNc1ncnc2c(Nc3ccccc3C)nc(N3CCNCC3)nc12
IC50 (Ketohexokinase [1]): 1.6 µM

Cc1ccccc1Nc1nc(N2CCNCC2)nc2c(NC3CCCCC3)ncnc12
IC50 (Ketohexokinase [1]): 2.3 µM

CCN(CC)c1ncnc2c(Nc3ccccc3C)nc(N3CCNCC3)nc12
IC50 (Ketohexokinase [1]): 1.7 µM

— ChEMBL document CHEMBL2016462, “Inhibitors of Ketohexokinase: Discovery of Pyrimidinopyrimidines with Specific Substitution that Complements the ATP-Binding Site” (ACS Med Chem Lett, 2011)
